In patent publication US20250122183A1 (Pfizer Inc., priority 2023, published 2025):
Where two headings read alike, the source gives them in different places.

Columns and labels:
Type in all cases: biochemical
[1] = biological target: KAT7+JADE1+EAF6+ING5 4 protein complex (Homo sapiens (Human), UniProt O95251); test: KAT7 JADE1 assay (SAMDI-MS acetylation of H3 1-21 peptide); conditions: replicate number in parentheses
[2] = biological target: KAT7+BRPF1+EAF6+ING5 4 protein complex (Homo sapiens (Human), UniProt O95251); test: KAT7 BRPF1 assay (SAMDI-MS acetylation of H3 1-21 peptide); conditions: Morrison equation fit; replicate number in parentheses
KAT6A Full length enzyme = KAT6A Full length enzyme (Homo sapiens (Human), UniProt Q92794); test: KAT6A assay (SAMDI-MS acetylation of H3 1-21 peptide); conditions: replicate number in parentheses
KAT5 Full length enzyme = KAT5 Full length enzyme (Homo sapiens (Human), UniProt Q92993); test: KAT5 assay (SAMDI-MS acetylation of H4 1-21 peptide); conditions: replicate number in parentheses
[3] = biological target: KAT7+BRPF2+EAF6+ING5 4 protein complex (Homo sapiens (Human), UniProt O95251); test: KAT7 BRPF2 assay (SAMDI-MS acetylation of H3 1-21 peptide); conditions: replicate number in parentheses
KAT8 Full length enzyme = KAT8 Full length enzyme (Homo sapiens (Human), UniProt Q9H7Z6); test: KAT8 assay (SAMDI-MS acetylation of H3 1-21 peptide); conditions: replicate number in parentheses
[4] = Morrison equation fit, read-out: KAT7 JADE1 Ki (nM) (replicate number)
[5] = Morrison equation fit, read-out: KAT6A Ki (nM) (replicate number)
[6] = Morrison equation fit, read-out: KAT5 Ki (nM) (replicate number)
[7] = Morrison equation fit, read-out: KAT7 BRPF2 Ki (nM) (replicate number)
[8] = Morrison equation fit, read-out: KAT8 Ki (nM) (replicate number)
[9] = read-out: KAT7 JADE1 Ki (nM) (replicate)
[10] = read-out: KAT5 Ki (nM) (replicate)
[11] = read-out: KAT7 BRPF2 Ki (nM) (replicate)
[12] = read-out: KAT6A Ki (nM) (replicate)
[13] = read-out: KAT8 Ki (nM) (replicate)

Sequence of KAT6A Full length enzyme (Q92794 other isoform, or with tags, fused parts or gaps): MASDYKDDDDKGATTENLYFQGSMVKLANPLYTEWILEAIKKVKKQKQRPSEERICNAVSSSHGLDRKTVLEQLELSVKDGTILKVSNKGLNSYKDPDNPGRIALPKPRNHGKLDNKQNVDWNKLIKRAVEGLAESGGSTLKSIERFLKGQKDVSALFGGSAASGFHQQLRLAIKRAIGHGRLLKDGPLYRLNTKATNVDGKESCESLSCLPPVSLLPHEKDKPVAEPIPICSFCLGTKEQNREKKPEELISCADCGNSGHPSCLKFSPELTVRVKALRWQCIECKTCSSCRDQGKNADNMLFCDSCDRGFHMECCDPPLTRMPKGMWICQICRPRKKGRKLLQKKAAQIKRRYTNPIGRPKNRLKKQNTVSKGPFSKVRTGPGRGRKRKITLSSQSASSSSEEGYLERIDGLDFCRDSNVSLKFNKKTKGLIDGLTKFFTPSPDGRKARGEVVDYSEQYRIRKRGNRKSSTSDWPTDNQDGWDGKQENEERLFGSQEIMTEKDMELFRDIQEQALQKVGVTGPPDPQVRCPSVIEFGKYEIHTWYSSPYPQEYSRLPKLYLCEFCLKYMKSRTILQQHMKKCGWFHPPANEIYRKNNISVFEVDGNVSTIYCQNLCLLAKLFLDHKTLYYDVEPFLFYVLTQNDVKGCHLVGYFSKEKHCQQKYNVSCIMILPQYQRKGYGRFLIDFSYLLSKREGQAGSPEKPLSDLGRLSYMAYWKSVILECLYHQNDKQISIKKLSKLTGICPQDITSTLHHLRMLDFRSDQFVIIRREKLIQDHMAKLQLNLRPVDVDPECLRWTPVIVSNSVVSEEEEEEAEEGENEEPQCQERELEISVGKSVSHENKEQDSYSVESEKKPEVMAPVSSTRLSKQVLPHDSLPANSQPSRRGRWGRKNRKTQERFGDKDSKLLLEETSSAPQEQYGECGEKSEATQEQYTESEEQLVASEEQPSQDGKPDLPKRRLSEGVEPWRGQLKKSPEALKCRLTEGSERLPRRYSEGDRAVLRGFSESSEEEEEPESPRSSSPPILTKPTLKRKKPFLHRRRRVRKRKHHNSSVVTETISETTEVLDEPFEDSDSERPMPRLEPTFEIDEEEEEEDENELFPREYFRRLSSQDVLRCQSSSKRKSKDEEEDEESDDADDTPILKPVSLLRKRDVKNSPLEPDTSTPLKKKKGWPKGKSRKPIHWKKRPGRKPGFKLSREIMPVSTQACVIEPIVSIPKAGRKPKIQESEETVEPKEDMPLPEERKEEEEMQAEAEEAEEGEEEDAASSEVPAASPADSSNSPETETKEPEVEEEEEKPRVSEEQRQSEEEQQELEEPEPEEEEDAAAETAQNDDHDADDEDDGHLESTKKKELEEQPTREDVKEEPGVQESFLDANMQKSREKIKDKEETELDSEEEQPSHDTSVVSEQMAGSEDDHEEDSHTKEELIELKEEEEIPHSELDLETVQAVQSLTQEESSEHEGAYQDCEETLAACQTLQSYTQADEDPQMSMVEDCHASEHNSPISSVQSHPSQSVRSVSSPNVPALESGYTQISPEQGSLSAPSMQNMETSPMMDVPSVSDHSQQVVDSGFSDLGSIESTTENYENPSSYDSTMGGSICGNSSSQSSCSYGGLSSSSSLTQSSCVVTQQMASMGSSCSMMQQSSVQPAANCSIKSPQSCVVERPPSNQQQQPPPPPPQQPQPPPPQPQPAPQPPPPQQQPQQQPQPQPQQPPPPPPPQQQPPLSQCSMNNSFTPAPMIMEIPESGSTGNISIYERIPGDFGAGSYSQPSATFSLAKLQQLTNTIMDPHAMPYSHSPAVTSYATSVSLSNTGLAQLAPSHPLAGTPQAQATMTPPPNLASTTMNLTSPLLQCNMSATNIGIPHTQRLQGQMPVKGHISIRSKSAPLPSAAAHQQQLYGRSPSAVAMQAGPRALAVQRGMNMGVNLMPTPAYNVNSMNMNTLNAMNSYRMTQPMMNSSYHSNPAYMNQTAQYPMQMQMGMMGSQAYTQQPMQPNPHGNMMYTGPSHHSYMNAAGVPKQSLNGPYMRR
Sequence of KAT5 Full length enzyme (Q92993 whole entry): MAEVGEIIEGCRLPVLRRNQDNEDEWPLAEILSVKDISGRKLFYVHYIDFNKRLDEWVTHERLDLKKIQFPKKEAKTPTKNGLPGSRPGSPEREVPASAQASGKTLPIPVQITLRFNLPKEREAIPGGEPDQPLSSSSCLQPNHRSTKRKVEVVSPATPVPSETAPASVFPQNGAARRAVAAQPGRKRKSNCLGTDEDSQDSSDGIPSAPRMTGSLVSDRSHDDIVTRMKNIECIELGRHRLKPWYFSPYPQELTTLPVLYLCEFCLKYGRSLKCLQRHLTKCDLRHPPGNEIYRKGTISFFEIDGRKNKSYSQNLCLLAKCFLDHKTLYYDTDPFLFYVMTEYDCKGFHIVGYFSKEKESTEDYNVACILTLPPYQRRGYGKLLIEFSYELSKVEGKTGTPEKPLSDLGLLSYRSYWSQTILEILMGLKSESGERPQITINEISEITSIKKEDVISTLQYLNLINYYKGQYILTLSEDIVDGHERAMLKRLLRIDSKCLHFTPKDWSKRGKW
Sequence of KAT8 Full length enzyme (Q9H7Z6 whole entry): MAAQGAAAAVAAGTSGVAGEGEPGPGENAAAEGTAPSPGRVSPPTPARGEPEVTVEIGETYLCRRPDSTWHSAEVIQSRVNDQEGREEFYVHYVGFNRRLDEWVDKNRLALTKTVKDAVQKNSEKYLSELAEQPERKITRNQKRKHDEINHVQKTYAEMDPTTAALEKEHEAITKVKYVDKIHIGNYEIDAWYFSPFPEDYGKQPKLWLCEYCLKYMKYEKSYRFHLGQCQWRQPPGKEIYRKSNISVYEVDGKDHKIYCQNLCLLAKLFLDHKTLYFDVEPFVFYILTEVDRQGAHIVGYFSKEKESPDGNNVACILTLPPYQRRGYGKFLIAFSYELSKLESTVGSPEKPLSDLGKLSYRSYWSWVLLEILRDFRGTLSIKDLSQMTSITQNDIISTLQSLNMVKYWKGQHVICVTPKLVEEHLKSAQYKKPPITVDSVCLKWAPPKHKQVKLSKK

| SMILES | Ki [1, 4] | Ki [2] | Ki (KAT6A Full length enzyme; [5]) | Ki (KAT5 Full length enzyme; [6]) | Ki [3, 7] | Ki (KAT8 Full length enzyme; [8]) | Ki [1, 9] | Ki (KAT5 Full length enzyme; [10]) | Ki [3, 11] | Ki (KAT6A Full length enzyme; [12]) | Ki (KAT8 Full length enzyme; [13]) |
| --- | --- | --- | --- | --- | --- | --- | --- | --- | --- | --- | --- |
| COc1cc2c(NS(=O)(=O)c3c(OC)cc(C4CCCCN4C)cc3OC)noc2cc1Nc1cc(C2CC2)n[nH]1 (racemic) [Example 155, N-{6-[(3-cyclopropyl-1 H-pyrazol-5-yl)amino]-5-methoxy-1,2-benzoxazol-3-yl}-2,6-dimethoxy-4-(1-methylpiperidin-2-yl)benzene-1-sulfonamide] | 24.3 nM | 14.9 nM | 2.9 nM | – | – | – | – | – | – | – | – |
| COc1cc2c(NS(=O)(=O)c3c(OC)cc(C4COCC(C)(C)O4)cc3OC)noc2cc1Nc1cc(C2CC2)n[nH]1 (single isomer, unassigned) [Example 184, N-{6-[(3-cyclopropyl-1 H-pyrazol-5-yl)amino]-5-methoxy-1,2-benzoxazol-3-yl}-4-(6,6-dimethyl-1,4-dioxan-2-yl)-2,6-dimethoxybenzene-1-sulfonamide] | 4.7 nM | – | 1.8 nM | 60.7 nM | 1.6 nM | 1030 nM | – | – | – | – | – |
| COc1cc2c(NS(=O)(=O)c3c(OC)cc(C4COC(C)(C)CO4)cc3OC)noc2cc1Nc1cc(C2CC2)n[nH]1 (single isomer, unassigned) [Example 185, N-{6-[(3-cyclopropyl-1 H-pyrazol-5-yl)amino]-5-methoxy-1,2-benzoxazol-3-yl}-4-(5,5-dimethyl-1,4-dioxan-2-yl)-2,6-dimethoxybenzene-1-sulfonamide] | 1.8 nM | – | 0.3 nM | 1 nM | 0.9 nM | 1220 nM | – | – | – | – | – |
| COc1cc2c(NS(=O)(=O)c3c(OC)cc(C4COC(C)(C)CO4)cc3OC)noc2cc1Nc1cc(C2CC2)n[nH]1 (single isomer, unassigned) [Example 186, N-{6-[(3-cyclopropyl-1 H-pyrazol-5-yl)amino]-5-methoxy-1,2-benzoxazol-3-yl}-4-(5,5-dimethyl-1,4-dioxan-2-yl)-2,6-dimethoxybenzene-1-sulfonamide] | 3.6 nM | – | 0.8 nM | 5.8 nM | 1.5 nM | 590 nM | – | – | – | – | – |
| CCOc1cccc(OC)c1S(=O)(=O)Nc1noc2cc(Nc3cc[nH]n3)c(OC)cc12 [Example 30, 2-ethoxy-6-methoxy-N-{5-methoxy-6-[(1H-pyrazol-3-yl)amino]-1,2-benzoxazol-3-yl}benzene-1-sulfonamide] | 248 nM | – | 0.5 nM | 605 nM | 26 nM | 676 nM | – | – | – | – | – |
| COc1cc2c(NS(=O)(=O)c3c(OC)cccc3OC)noc2cc1Nc1c(C#N)c(C)nn1C [Example 46, N-{6-[(4-cyano-1,3-dimethyl-1H-pyrazol-5-yl)amino]-5-methoxy-1,2-benzoxazol-3-yl}-2,6-dimethoxybenzene-1-sulfonamide] | > 9770 nM | > 16100 nM | > 377 nM | – | – | – | – | – | – | – | – |
| COc1cc2c(NS(=O)(=O)c3c(OC)cccc3OC)noc2cc1Nc1cc(C)nn1CCO [Example 59, N-(6-{[1-(2-hydroxyethyl)-3-methyl-1H-pyrazol-5-yl]amino}-5-methoxy-1,2-benzoxazol-3-yl)-2,6-dimethoxybenzene-1-sulfonamide] | > 2870 nM | 580 nM | – | – | – | – | – | – | – | – | – |
| CCOc1cccc(OC)c1S(=O)(=O)Nc1noc2cc(Nc3cc(C(C)C)[nH]n3)c(OC)cc12 [Example 83, 2-ethoxy-6-methoxy-N-(5-methoxy-6-{[5-(propan-2-yl)-1H-pyrazol-3-yl]amino}-1,2-benzoxazol-3-yl)benzene-1-sulfonamide] | 60.1 nM | – | 2.9 nM | 502 nM | 7.8 nM | 10400 nM | – | – | – | – | – |
| CCc1cc(Nc2cc3onc(NS(=O)(=O)c4ccc(C(=O)NCCCCCN)cc4OC)c3cc2OC)[nH]n1 [Example 96, N-(5-aminopentyl)-4-({6-[(3-ethyl-1H-pyrazol-5-yl)amino]-5-methoxy-1,2-benzoxazol-3-yl}sulfamoyl)-3-methoxybenzamide] | 103 nM | – | 7.3 nM | 2050 nM | 13.6 nM | > 13000 nM | – | – | – | – | – |
| CCOc1cccc(OC)c1S(=O)(=O)Nc1noc2cc(Nc3cc(C)[nH]n3)c(OC)cc12 [Example 99, 2-ethoxy-6-methoxy-N-{5-methoxy-6-[(5-methyl-1H-pyrazol-3-yl)amino]-1,2-benzoxazol-3-yl}benzene-1-sulfonamide] | 82.6 nM | – | 0.5 nM | 388 nM | 5.5 nM | 4840 nM | – | – | – | – | – |
| CCc1cc(Nc2cc3onc(NS(=O)(=O)c4ccc(C(=O)NCCCCCNC(=O)c5ccc(-c6nnc(C)nn6)cc5)cc4OC)c3cc2OC)[nH]n1 [Example 138, 4-({6-[(3-Ethyl-1 H-pyrazol-5-yl)amino]-5-methoxy-1,2-benzoxazol-3-yl}sulfamoyl)-3-methoxy-N-{5-[4-(6-methyl-1,2,4,5-tetrazin-3-yl)benzamido]pentyl}benzamide] | 40.6 nM | – | 1.2 nM | 195 nM | 5.6 nM | > 13000 nM | – | – | – | – | – |
| COc1cc2c(NS(=O)(=O)c3c(OC)cc([C@H]4CCCN4C)cc3OC)noc2cc1Nc1cc(C2CC2)n[nH]1 [Example 188, N-{6-[(3-cyclopropyl-1 H-pyrazol-5-yl)amino]-5-methoxy-1,2-benzoxazol-3-yl}-2,6-dimethoxy-4-[(2R)-1-methylpyrrolidin-2-yl]benzene-1-sulfonamide] | 8.4 nM | – | 2.5 nM | 140 nM | 2.9 nM | 3690 nM | – | – | – | – | – |
| COc1cc2c(NS(=O)(=O)c3c(OC)cc(N4CC[C@@H](F)C4)cc3OC)noc2cc1Nc1cc(C2CC2)n[nH]1 [Example 249, N-{6-[(3-cyclopropyl-1H-pyrazol-5-yl)amino]-5-methoxy-1,2-benzoxazol-3-yl}-4-[(3R)-3-fluoropyrrolidin-1-yl]-2,6-dimethoxybenzene-1-sulfonamide] | – | – | – | – | – | – | 1.7 nM | 8.7 nM | 0.3 nM | 0.3 nM | 104 nM |
| COc1cc2c(NS(=O)(=O)c3c(OC)cc(N4CCN(C)CC4)cc3OC)noc2cc1Nc1cc(C2CC2)n[nH]1 [Example 251, N-{6-[(3-cyclopropyl-1H-pyrazol-5-yl)amino]-5-methoxy-1,2-benzoxazol-3-yl}-2,6-dimethoxy-4-(4-methylpiperazin-1-yl)benzene-1-sulfonamide] | – | – | – | – | – | – | 6.2 nM | 67 nM | 2.1 nM | 1 nM | 1150 nM |
| COc1cc2c(NS(=O)(=O)c3c(OC)cc(N4CCN(C)C(=O)C4)cc3OC)noc2cc1Nc1cc(C2CC2)n[nH]1 [Example 254, N-{6-[(3-cyclopropyl-1H-pyrazol-5-yl)amino]-5-methoxy-1,2-benzoxazol-3-yl}-2,6-dimethoxy-4-(4-methyl-3-oxopiperazin-1-yl)benzene-1-sulfonamide] | – | – | – | – | – | – | 6.6 nM | 54.5 nM | 1.2 nM | 0.7 nM | 1260 nM |
| COc1cc2c(NS(=O)(=O)c3c(OC)cc(N4C(=O)CCC4(C)C)cc3OC)noc2cc1Nc1cc(C2CC2)n[nH]1 [Example 256, N-{6-[(3-cyclopropyl-1H-pyrazol-5-yl)amino]-5-methoxy-1,2-benzoxazol-3-yl}-4-(2,2-dimethyl-5-oxopyrrolidin-1-yl)-2,6-dimethoxybenzene-1-sulfonamide] | – | – | – | – | – | – | 4.7 nM | – | 0.8 nM | 1.1 nM | – |
